# Laboratory results reported in patent publication US20110257220A1, “3,11 b-cis-Dihydrotetrabenazine for the Treatment of Schizophrenia and Other Psychoses” (CAMBRIDGE LABORATORIES (IRELAND) LIMITED, priority 2005, published 2011).
# Tests used:
# Adrenergic α2B Receptor = target: T1, Adrenergic α2B Receptor (Homo sapiens, UniProt P18089); test: Adrenergic α2B receptor radioligand binding ([3H] Rauwolscine); conditions: 10 μM solution; for inhibition at 10 µM: read-out: Percentage Inhibition of Specific Binding, α2B Receptor
# T1 construct: expressed in transfected cells; host or cells: CHO-K1 cells
# T1 sequence (P18089 1-450): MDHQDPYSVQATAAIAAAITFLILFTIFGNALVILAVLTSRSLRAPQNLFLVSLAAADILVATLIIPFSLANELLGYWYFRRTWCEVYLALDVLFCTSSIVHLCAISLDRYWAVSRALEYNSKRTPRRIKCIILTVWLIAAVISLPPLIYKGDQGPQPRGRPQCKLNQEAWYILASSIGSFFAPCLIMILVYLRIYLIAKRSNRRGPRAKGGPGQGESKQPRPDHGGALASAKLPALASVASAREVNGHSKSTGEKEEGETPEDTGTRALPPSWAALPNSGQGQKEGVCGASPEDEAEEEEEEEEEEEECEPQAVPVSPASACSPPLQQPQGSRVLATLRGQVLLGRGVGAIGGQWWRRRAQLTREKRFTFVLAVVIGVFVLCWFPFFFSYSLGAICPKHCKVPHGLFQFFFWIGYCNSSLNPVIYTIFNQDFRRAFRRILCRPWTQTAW
# Experimental: (§1) The four dihydrotetrabenazine isomers A, B, C and D were subjected to specific binding assays to test their ability to bind to the receptors and transporter proteins described below. The results are set out in Table 5
# (b) Adrenergic α2B Receptor:
# • Reference: S. Uhlen et al., Eur. I Pharmacol., 33 (1): 93-1-1 (1998) • Source: Human recombinant CHO-K1 cells • Ligand: 2.5 nM [3H]
# Dopamine D3 Receptor = target: T2, Dopamine D3 Receptor (Homo sapiens, UniProt P35462); test: Dopamine D3 receptor radioligand binding ([3H] Spiperone); conditions: 10 μM solution; for inhibition at 10 µM: read-out: Percentage Inhibition of Specific Binding, D3 Receptor
# T2 construct: expressed in transfected cells; host or cells: CHO cells
# Experimental: as §1
# (e) Dopamine D3 Receptor:
# • Reference: Sokoloff et al., Nature, 347:146-151, (1990) • Source: Human recombinant CHO cells • Ligand: 0.7 nM [3H]
# [1] = system: Imidazoline I2 (Central) Receptor; test: Imidazoline I2 (central) receptor radioligand binding ([3H] Idazoxan); set-up: species or system Wistar rat; conditions: 10 μM solution
# Experimental: as §1
# (f) Imidazoline I2 (Central) Receptor:
# • Reference: Brown et al., Brit. I Pharmacol., 99:803-809, (1990) • Source: Wistar rat cerebral cortex • Ligand: 2 nM [3H] Idazoxan • Vehicle: 1% DMSO • Incubation time/Temp: 30 minutes @ 25° C. • Incubation buffer: 50 mM Tris-HCl, 0.5 mM EDTA, pH 7.4 at 25° C. • Non Specific ligand: 1 μM Idazoxan • Kd: 4 nM • Bmax: 0.14 pmole/mg protein • Specific binding: 85% • Quantitation method: Radioligand binding • Significance criteria: ≧50% of maximum stimulation or inhibition
# Sigma σ1 Receptor = target: T3, Sigma σ1 Receptor (Homo sapiens, UniProt Q99720); test: Sigma σ1 receptor radioligand binding ([3H] Haloperidol); conditions: 10 μM solution; for inhibition at 10 µM: read-out: Percentage Inhibition of Specific Binding, σ1 Receptor
# T3 construct: endogenous in cells; host or cells: Jurkat cells
# Experimental: as §1
# • Reference: Ganaphthy et al., Pharmacol. Exp. Ther., 289:251-260, (1999) • Source: Human jurkat cells • Ligand: 8 nM [3H]
# Sigma σ2 Receptor = target: T4, Sigma σ2 Receptor (Rattus norvegicus, UniProt Q5U3Y7); test: Sigma σ2 receptor radioligand binding ([3H] Ifenprodil); set-up: species or system Wistar rat; conditions: 10 μM solution; for inhibition at 10 µM: read-out: Percentage Inhibition of Specific Binding, σ2 Receptor
# T4 construct: from tissue; host or cells: Wistar rat brain
# T4 sequence (Q5U3Y7 1-176): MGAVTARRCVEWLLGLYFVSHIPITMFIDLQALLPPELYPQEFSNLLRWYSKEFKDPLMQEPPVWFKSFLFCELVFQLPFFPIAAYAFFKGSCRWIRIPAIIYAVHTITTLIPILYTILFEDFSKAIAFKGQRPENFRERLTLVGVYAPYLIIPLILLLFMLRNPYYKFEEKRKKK
# Experimental: as §1
# • Reference: Hashimoto et al., Eur. J. Pharmacol., 236:159-163, (1993) • Source: Wistar rat brain • Ligand: 3 nM [3H]
# [2] = target: T5, Serotonin Transporter (SERT) (Homo sapiens, UniProt P31645); test: Serotonin transporter radioligand binding ([125I] RTI-55); conditions: for inhibition at 10 µM: read-out: Percentage Inhibition of Specific Binding, SERT
# T5 construct: expressed in transfected cells; host or cells: HEK-293 cells
# Experimental: as §1
# (i) Serotonin Transporter (SERT):
# • Reference: Gu et al., J. Biol. Chem., 269(10):7124-7130, (1994) • Source: Human recombinant HEK-293 cells • Ligand: 0.15 nM [125I] RTI-55 • Vehicle: 1% DMSO • Incubation time/Temp: 3 hours @ 4° C. • Incubation buffer: 100 mM NaCl, 50 mM Tris HCl, 1 μM Leupeptin, 10 μM PMSF, pH 7.4 • Non Specific ligand: 10 μM Imipramine • Kd: 0.17 nM • Bmax: 0.41 pmole/mg protein • Specific binding: 95% • Quantitation method: Radioligand binding • Significance criteria: ≧50% of maximum stimulation or inhibition
# α2c Adrenergic receptor = target: T6, α2c Adrenergic receptor (Homo sapiens, UniProt P18825); test: α2c Adrenergic receptor radioligand binding ([3H] MK-912); conditions: 10 μM solution; for inhibition at 10 µM: read-out: Percentage Inhibition of Specific Binding, α2c receptor
# T6 construct: expressed in transfected cells; host or cells: insect Sf9 cells
# T6 sequence (P18825 1-462): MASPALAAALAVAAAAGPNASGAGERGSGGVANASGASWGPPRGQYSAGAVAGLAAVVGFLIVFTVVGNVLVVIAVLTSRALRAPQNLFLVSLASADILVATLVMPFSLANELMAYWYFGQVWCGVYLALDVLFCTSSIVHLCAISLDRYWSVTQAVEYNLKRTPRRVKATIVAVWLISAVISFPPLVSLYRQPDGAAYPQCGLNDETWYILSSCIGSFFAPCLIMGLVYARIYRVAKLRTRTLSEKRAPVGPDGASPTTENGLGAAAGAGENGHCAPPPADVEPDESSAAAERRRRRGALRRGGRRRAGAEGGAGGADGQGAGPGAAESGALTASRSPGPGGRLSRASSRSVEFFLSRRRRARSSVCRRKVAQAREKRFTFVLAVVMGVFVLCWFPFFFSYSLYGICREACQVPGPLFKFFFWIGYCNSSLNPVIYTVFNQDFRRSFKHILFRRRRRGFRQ
# Experimental: as §1
# (k) α2, Adrenergic Receptor
# α2c Adrenergic receptor binding activity was determined using the method of Uhlen et al., J. Pharmacol. Exp. Ther. (1994), 271:1558-1565, and the following conditions: • Source: Human recombinant insect Sf9 cells • Ligand: 1 nM [^3H]
# [3] = target: T7, Serotonin (5-hydroxytryptamine) 5-HT2b Receptor (Homo sapiens, UniProt P41595); test: 5-HT2b receptor radioligand binding ([3H] LSD); conditions: 10 μM solution; for inhibition at 10 µM: read-out: Percentage Inhibition of Specific Binding, 5-HT2b receptor
# T7 construct: expressed in transfected cells; host or cells: CHO-K1 cells
# [4] = target: T8, Serotonin (5-hydroxytryptamine) 5-HT6 Receptor (Homo sapiens, UniProt P50406); test: 5-HT6 receptor radioligand binding ([3H] LSD); conditions: 10 μM solution; for inhibition at 10 µM: read-out: Percentage Inhibition of Specific Binding, 5-HT6 receptor
# T8 construct: expressed in transfected cells; host or cells: HeLa cells
# Text: as §1
# T8 sequence (P50406 whole entry): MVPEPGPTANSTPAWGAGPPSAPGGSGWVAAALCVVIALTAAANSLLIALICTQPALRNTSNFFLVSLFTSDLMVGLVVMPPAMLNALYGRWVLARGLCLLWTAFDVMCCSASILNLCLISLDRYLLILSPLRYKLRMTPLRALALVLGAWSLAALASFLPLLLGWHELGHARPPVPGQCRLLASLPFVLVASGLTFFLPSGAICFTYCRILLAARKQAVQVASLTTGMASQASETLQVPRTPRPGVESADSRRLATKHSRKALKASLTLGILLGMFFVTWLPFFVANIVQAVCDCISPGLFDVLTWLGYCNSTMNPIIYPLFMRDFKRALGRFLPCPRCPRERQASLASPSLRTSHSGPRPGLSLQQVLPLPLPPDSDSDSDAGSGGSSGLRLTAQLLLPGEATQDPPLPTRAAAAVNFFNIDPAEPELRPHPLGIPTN
# T2 sequence (P35462 whole entry): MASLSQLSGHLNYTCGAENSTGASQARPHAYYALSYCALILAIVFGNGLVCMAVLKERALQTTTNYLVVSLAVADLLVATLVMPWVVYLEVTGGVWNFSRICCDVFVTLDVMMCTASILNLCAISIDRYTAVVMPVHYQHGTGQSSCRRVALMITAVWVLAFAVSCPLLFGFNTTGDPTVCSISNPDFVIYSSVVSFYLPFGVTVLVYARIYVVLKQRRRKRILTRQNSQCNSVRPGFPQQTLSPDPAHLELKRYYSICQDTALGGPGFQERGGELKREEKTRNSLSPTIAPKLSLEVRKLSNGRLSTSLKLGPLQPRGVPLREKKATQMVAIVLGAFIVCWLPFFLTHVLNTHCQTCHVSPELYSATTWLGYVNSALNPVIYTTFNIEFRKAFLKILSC
# T5 sequence (P31645 whole entry): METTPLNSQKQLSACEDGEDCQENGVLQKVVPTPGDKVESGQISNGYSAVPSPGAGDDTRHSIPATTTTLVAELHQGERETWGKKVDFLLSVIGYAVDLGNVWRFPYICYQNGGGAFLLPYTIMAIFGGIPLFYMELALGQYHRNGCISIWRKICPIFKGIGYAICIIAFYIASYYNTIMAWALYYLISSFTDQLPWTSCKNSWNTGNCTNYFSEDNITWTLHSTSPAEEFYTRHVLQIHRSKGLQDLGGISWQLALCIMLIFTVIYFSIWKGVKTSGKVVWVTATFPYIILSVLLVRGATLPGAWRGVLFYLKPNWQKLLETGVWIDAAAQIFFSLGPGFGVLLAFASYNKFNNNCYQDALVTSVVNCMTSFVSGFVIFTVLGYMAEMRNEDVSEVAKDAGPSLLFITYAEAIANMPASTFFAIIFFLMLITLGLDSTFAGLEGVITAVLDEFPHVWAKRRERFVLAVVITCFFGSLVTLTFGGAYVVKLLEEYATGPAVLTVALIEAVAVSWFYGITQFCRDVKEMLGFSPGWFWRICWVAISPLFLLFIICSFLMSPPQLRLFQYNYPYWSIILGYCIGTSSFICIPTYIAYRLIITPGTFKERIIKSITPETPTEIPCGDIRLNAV
# T3 sequence (Q99720 whole entry): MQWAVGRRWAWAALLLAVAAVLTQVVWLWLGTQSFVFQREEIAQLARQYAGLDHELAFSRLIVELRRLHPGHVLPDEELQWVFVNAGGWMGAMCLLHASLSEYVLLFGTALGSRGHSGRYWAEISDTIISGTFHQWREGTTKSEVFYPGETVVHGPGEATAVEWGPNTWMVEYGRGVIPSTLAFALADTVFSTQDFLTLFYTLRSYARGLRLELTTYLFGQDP
# T7 sequence (P41595 whole entry): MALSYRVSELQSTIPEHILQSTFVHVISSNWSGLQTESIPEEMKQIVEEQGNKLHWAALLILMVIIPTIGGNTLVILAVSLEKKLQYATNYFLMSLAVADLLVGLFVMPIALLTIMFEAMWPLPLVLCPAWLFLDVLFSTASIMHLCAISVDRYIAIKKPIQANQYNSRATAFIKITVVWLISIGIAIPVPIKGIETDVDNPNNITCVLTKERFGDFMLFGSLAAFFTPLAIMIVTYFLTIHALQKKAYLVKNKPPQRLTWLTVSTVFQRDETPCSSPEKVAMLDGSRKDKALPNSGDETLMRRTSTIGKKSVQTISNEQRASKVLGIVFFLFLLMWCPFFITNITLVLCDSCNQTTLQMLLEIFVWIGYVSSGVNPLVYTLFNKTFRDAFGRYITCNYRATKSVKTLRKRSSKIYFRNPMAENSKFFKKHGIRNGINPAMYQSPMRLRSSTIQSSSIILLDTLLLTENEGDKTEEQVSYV
SMILES,inhibition at 10 µM (Adrenergic α2B Receptor) [%],inhibition at 10 µM (Dopamine D3 Receptor) [%],"Percentage Inhibition of Specific Binding, I2 Receptor [1] [%]",inhibition at 10 µM (Sigma σ1 Receptor) [%],inhibition at 10 µM (Sigma σ2 Receptor) [%],inhibition at 10 µM ([2]; 10 μM solution) [%],inhibition at 10 µM (α2c Adrenergic receptor) [%],inhibition at 10 µM [3] [%],inhibition at 10 µM [4] [%],"IC50 ([2]; value in parentheses, unit inferred) [nM]","Percentage Inhibition of Specific Binding, α2B Receptor (Adrenergic α2B Receptor) [%]","Percentage Inhibition of Specific Binding, D3 Receptor (Dopamine D3 Receptor) [%]","Percentage Inhibition of Specific Binding, σ1 Receptor (Sigma σ1 Receptor) [%]","Percentage Inhibition of Specific Binding, σ2 Receptor (Sigma σ2 Receptor) [%]","Percentage Inhibition of Specific Binding, SERT ([2]; 10 μM solution) [%]","Percentage Inhibition of Specific Binding, α2c receptor (α2c Adrenergic receptor) [%]","Percentage Inhibition of Specific Binding, 5-HT2b receptor [3] [%]","Percentage Inhibition of Specific Binding, 5-HT6 receptor [4] [%]"
"COc1cc2c(cc1OC)[C@@H]1C[C@@H](O)[C@H](CC(C)C)CN1CC2 (single isomer, unassigned) [Isomer A]",44,69,74,48,64,19,56,74,51,,,,,,,,,
"COc1cc2c(cc1OC)[C@H]1C[C@H](O)[C@@H](CC(C)C)CN1CC2 (single isomer, unassigned) [Isomer B]",14,7,8,82,64,86,-6,10,10,,,,,,,,,
"COc1cc2c(cc1OC)C1CC(O)C(CC(C)C)CN1CC2 (single isomer, unassigned) [Isomer C]",-7,9,0,59,61,77,3,14,10,2750,,,,,,,,
"COc1cc2c(cc1OC)[C@H]1C[C@@H](O)[C@H](CC(C)C)CN1CC2 (single isomer, unassigned; isomer d) [Isomer D]",,,55,,,,,,,,50,63,82,69,8,74,43,41
